Measurements taken from patent US9187467B2, “2-phenyl benzothiazole linked imidazole compounds as potential anticancer agents and process for the preparation thereof” (Council of Scientific and Industrial Research, priority 2012, dated 2015).
Read-outs that look alike come from different tables or passages of the source.

Tests used:
Type in all cases: cell-based, human
[1] = system: SK-MEL-5; test: SRB anticancer assay, melanoma; settings: Homo sapiens, SK-MEL-5, 48 h
[2] = system: SK-OV-3; test: SRB anticancer assay, ovarian; settings: Homo sapiens, SK-OV-3, 48 h
[3] = system: SF-539; test: SRB anticancer assay, CNS; settings: Homo sapiens, SF-539, 48 h
[4] = system: OVCAR-8; test: SRB anticancer assay, ovarian; settings: Homo sapiens, OVCAR-8, 48 h
[5] = system: KM12; test: SRB anticancer assay, colon; settings: Homo sapiens, KM12, 48 h
[6] = system: SNB-19; test: SRB anticancer assay, CNS; settings: Homo sapiens, SNB-19, 48 h
[7] = system: RXF 393; test: SRB anticancer assay, renal; settings: Homo sapiens, RXF 393, 48 h
[8] = system: MALME-3M; test: SRB anticancer assay, melanoma; settings: Homo sapiens, Malme-3M, 48 h
[9] = system: BT-549; test: SRB anticancer assay, breast; settings: Homo sapiens, BT-549, 48 h
[10] = system: TK-10; test: SRB anticancer assay, renal; settings: Homo sapiens, TK-10, 48 h
[11] = system: OVCAR-5; test: SRB anticancer assay, ovarian; settings: Homo sapiens, OVCAR-5, 48 h
[12] = system: K-562; test: SRB anticancer assay, leukemia; settings: Homo sapiens, K562; K-562, 48 h
[13] = system: NCI-H522; test: SRB anticancer assay, non-small lung; settings: Homo sapiens, NCI-H522, 48 h
[14] = system: SK-MEL-2; test: SRB anticancer assay, melanoma; settings: Homo sapiens, SK-MEL-2, 48 h
[15] = system: ACHN; test: SRB anticancer assay, renal; settings: Homo sapiens, 48 h
[16] = system: 786-0; test: SRB anticancer assay, renal; settings: Homo sapiens, 786-0, 48 h
[17] = system: CNS cancer cell lines; test: SRB anticancer assay, panel result; settings: for mean graph midpoint value (MG_MID) of log10 TGI: total inhibition of net cell growth; for CC50 / GI50: Homo sapiens; for CC50: 50% net cell death, read-out: mean graph midpoint value (MG_MID) of Log10 LC50 (converted)
Method: (§1) The compounds were evaluated for anticancer activity against sixty human cancer cells derived from nine cancer types (leukemia cell line, non-small-cell lung cell line, colon cell line, CNS cell line, melanoma cell line, ovarian cell line, prostate cell line, renal cancer cell line and breast cancer cell line) as shown in Table 1. For each compound, dose response curves for each cell line were measured at a minimum of five concentrations at 10 fold dilutions. A protocol of 48 h continuous drug exposure was used and a sulforhodamine B (SRB) protein assay was used to estimate cell viability or growth.

[18] = system: Leukemia cancer cell lines; test: SRB anticancer assay, panel result; settings: for LC50 / GI50: Homo sapiens; for LC50: 50% net cell death, read-out: mean graph midpoint value (MG_MID) of Log10 LC50 (converted); for mean graph midpoint value (MG_MID) of log10 TGI: total inhibition of net cell growth
Method: as §1

[19] = system: UACC-257; test: SRB anticancer assay, melanoma; settings: Homo sapiens, UACC-257, 48 h
[20] = system: SF-295; test: SRB anticancer assay, CNS; settings: Homo sapiens, SF-295, 48 h
[21] = system: HS 578T; test: SRB anticancer assay, breast; settings: Homo sapiens, 48 h
[22] = system: PC-3; test: SRB anticancer assay, prostate; settings: Homo sapiens, PC-3, 48 h
[23] = system: MDA-MB-231/ATCC; test: SRB anticancer assay, breast; settings: Homo sapiens, MDA-MB-231, 48 h, MDA-MB-231/ATCC (row head MDA-MB-), 48 h; read-out: GI50
[24] = system: NCI-H322M; test: SRB anticancer assay, non-small lung; settings: Homo sapiens, 48 h
[25] = system: MCF7; test: SRB anticancer assay, breast; settings: Homo sapiens, MCF7, 48 h
[26] = system: DU-145; test: SRB anticancer assay, prostate; settings: Homo sapiens, DU-145, 48 h
[27] = system: HT29; test: SRB anticancer assay, colon; settings: Homo sapiens, HT-29; HT29, 48 h
[28] = system: LOX IMVI; test: SRB anticancer assay, melanoma; settings: Homo sapiens, 48 h
[29] = system: UACC-62; test: SRB anticancer assay, melanoma; settings: Homo sapiens, UACC-62, 48 h
[30] = system: SF-268; test: SRB anticancer assay, CNS; settings: Homo sapiens, SF-268, 48 h
[31] = system: SK-MEL-28; test: SRB anticancer assay, melanoma; settings: Homo sapiens, SK-MEL-28, 48 h
[32] = CNS panel, read-out: mean graph midpoint value (MG_MID) of Log10 GI50 (converted)
[33] = six CNS cancer cell lines, exposure at least 48 h, read-out: GI50, range over the panel
[34] = Leukemia panel, read-out: mean graph midpoint value (MG_MID) of Log10 GI50 (converted)
[35] = six leukemia cancer cell lines, exposure at least 48 h, read-out: GI50, range over the panel

COc1cc(OC)c2sc(-c3ccc(-n4cncc4-c4cc(OC)c(OC)c(OC)c4)cc3)nc2c1 [Compound 6f, 5,7-Dimethoxy-2-(4-(5-(3,4,5-trimethoxyphenyl)-1H-imidazol-1-yl)phenyl)benzo[d]thiazole]
GI50 [1]: 2.46 µM | GI50 [2]: > 100 µM | GI50 [3]: 8.59 µM | GI50 [4]: > 100 µM | GI50 [5]: 4.62 µM | GI50 [6]: > 100 µM | GI50 [7]: 2.8 µM | GI50 [8]: 3.73 µM | GI50 [9]: 3.35 µM | GI50 [10]: 9.4 µM | GI50 [11]: > 100 µM | GI50 [12]: 3.83 µM | GI50 [13]: 3.27 µM | GI50 [14]: 6.09 µM | GI50 [15]: 6.67 µM | GI50 [16]: 7.38 µM | mean graph midpoint value (MG_MID) of log10 TGI ([17]; CNS panel): >−4.0 | CC50 ([17]; CNS panel): > 100 µM | GI50 [17, 32]: 15.8 µM | GI50 [17, 33]: 4.15 to 8.59 µM | LC50 ([18]; Leukemia panel): > 100 µM | GI50 [18, 34]: 3.89 µM | GI50 [18, 35]: 3.24 to 5.39 µM | mean graph midpoint value (MG_MID) of log10 TGI ([18]; Leukemia panel): >−4.0 | GI50 [19]: > 100 µM | GI50 [20]: 4.42 µM | GI50 [21]: 5.23 µM | GI50 [22]: 2.54 µM | GI50 [23]: 3.51 µM | GI50 [24]: > 100 µM | GI50 [25]: 3.88 µM | GI50 [26]: > 100 µM | GI50 [27]: 4.88 µM | GI50 [28]: 5.4 µM | GI50 [29]: 4.14 µM

COc1cc(OC)c2sc(-c3ccc(-n4cncc4-c4ccc(OC)c(OC)c4)cc3)nc2c1 [Compound 6e, 2-(4-(5-(3,4-Dimethoxyphenyl)-1H-imidazol-1-yl)phenyl)-5,7-dimethoxybenzo[d]thiazole]
GI50 [1]: 3.61 µM | GI50 [2]: > 100 µM | GI50 [3]: > 100 µM | GI50 [4]: 21.2 µM | GI50 [5]: 6.8 µM | GI50 [6]: > 100 µM | GI50 [8]: 59.8 µM | GI50 [9]: 3.78 µM | GI50 [10]: > 100 µM | GI50 [11]: > 100 µM | GI50 [12]: 5.88 µM | GI50 [13]: 5.26 µM | GI50 [14]: 41.4 µM | GI50 [15]: > 100 µM | GI50 [16]: > 100 µM | mean graph midpoint value (MG_MID) of log10 TGI ([17]; CNS panel): −4.06 | CC50 ([17]; CNS panel): > 100 µM | GI50 [17, 32]: 19.1 µM | GI50 [17, 33]: 7 to 9.96 µM | LC50 ([18]; Leukemia panel): > 100 µM | GI50 [18, 34]: 16.2 µM | GI50 [18, 35]: 3.03 to 5.88 µM | mean graph midpoint value (MG_MID) of log10 TGI ([18]; Leukemia panel): >−4.0 | GI50 [19]: > 100 µM | GI50 [20]: 7 µM | GI50 [30]: 9.96 µM | GI50 [21]: 9.12 µM | GI50 [22]: 3.66 µM | GI50 [23]: 28.4 µM | GI50 [24]: > 100 µM | GI50 [25]: 5.36 µM | GI50 [26]: 27.9 µM | GI50 [27]: 7.13 µM | GI50 [31]: > 100 µM | GI50 [28]: > 100 µM | GI50 [29]: 8.14 µM
